For assay [1], the system named is MV4-11 (leukemia). Nature of the assay: Cell proliferation inhibition in vitro, CellTiter-Glo, MV4-11. The format is cell-based. The following applies: Homo sapiens, read-out: MV4-11/IC50/μM. Here is the method:
(§1) By detecting the effect of compounds on cell activity in vitro in tumor cell lines TOV21G (ovarian cancer) and MV4-11 (leukemia), the inhibitory effect of compounds on cell proliferation was studied in this assay.
(§2) TOV21G cells and MV4-11 cells were purchased from American Type Culture Collection (ATCC).
MV-4-11 cells were cultured in IMDM medium (containing 20% of FBS). About 10,000 cells were inoculated in each well of a 96-well culture plate, and treated by adding different concentrations (0-10 μM) of compounds to be assayed. Each group was assayed in triplicate. Blank wells (containing medium only) and control wells (inoculated cells without being treated with drug) were set. Cells were cultured for 120 hours. 40 μL of Cell Titer-Glo solutions were added to each well, and the cells were incubated with shaking for 20 min in the dark. 100 μL of solution was transferred from each well to a 96-well blank plate, and the luminescence value was read by Biotek Synergy HI multifunctional microplate reader. Inhibition rate (%)=100%×(control well−assay well)/(control well−blank well)

In assay [2] the test system is TOV21G (ovarian cancer). Nature of the assay: Cell proliferation inhibition in vitro, CellTiter-Glo, TOV21G. It counts as cell-based. Conditions: Homo sapiens, read-out: TOV21G/IC50/μM. Here is the method: as §1, §2
TOV21G cells were cultured in MCDB105/M199 medium (containing 15% of FBS), and used for assaying when the cell confluence reached 85% or more. About 1000 cells were inoculated in each well of a 96-well culture plate, and cultured for 24 hours. Different concentrations (0-10 μM) of compounds to be assayed were added to treat the cells. Each group was assayed in triplicate. Blank wells (containing medium only) and control wells (inoculated cells without being treated with drug) were set. Cells were cultured for 120 hours. 40 μL of Cell Titer-Glo solutions (Promega, #G7573) were added to each well, and the cells were incubated with shaking for 20 min in the dark. 100 μL of solution was transferred from each well to a 96-well blank plate (Corning, #3917), and the luminescence value was read by Biotek Synergy H1 multifunctional microplate reader.
On the technique in general: ATP-based viability assays read luminescence as a measure of living cells.

The target in assay [3] is ATR kinase (Homo sapiens, UniProt Q13535). Nature of the assay: Assay of ATR kinase activity (time-resolved fluorescence, phosphorylation of p53-derived protein). It counts as biochemical. Here is the method:
Biotinylated protein derived from p53 (Eurofins, art. No.: 14-952) was phosphorylated with ATR kinase. The amount of phosphorylated protein was determined by time-resolved fluorescence in this assay. The amount of phosphorylated protein was detected by anti-p53-phospho-(serine 15)-K-specific antibody (Cisbio, art. No.: 61GSTDLA) and d2 labeled anti-GST antibody (Cisbio, art. No. 61P08KAE). Before the assay, the following working solutions were formulated as required: 1×reaction buffer (20 mM HEPES PH8.0, 1% glycerol, 0.01% Brij-35), dilution buffer (20 mM HEPES PH8.0, 1% glycerol, 0.01% Brij-35, 5 mM DTT and 1% BSA), stop solution (20 mM HEPES PH8.0, 1% glycerol, 0.01% Brij-35, 250 mM EDTA), detection buffer (50 mM HEPES pH7.0, 150 mM NaCl, 267 mM KF, 0.1% sodium cholate, 0.01% Tween-20, 0.0125% sodium azide). The reagents used above were purchased from Sigma or Invitrogen, except for those whose manufacturers were mentioned.
Operations were as follows:
4× serially diluted compound solutions were prepared with 1× reaction buffer to give 9 compound solutions with different concentrations, and 2.5 μL of the 4× serially diluted compound solutions were added to a 384-well analysis plate (784075, Greiner). 4×p53 substrate working solution (40 nM) was prepared with 1× reaction buffer, and 2.5 μL of the 4×p53 substrate working solution was added to a 384-well analysis plate. 4×ATR/ATRIP working solution (12.8 ng/μL) was prepared with dilution buffer, and 2.5 μL of the 4×pATR/ATRIP working solution was added to a 384-well analysis plate. 4×ATP working solution (2 mM) was prepared with deionized water, and 2.5 μL of the 4×ATP working solution was added to a 384-well analysis plate. The plates were incubated at room temperature in dark for 30 minutes. 5 μL of stop solution was added to the 384 analysis plates. Finally, 5 μL of assay mixture (0.084 ng/μL Anti-phospho-p53(ser15)-K and 5 ng/μL Anti-GST-d2) was added to the 384 well analysis plates, and incubated at room temperature overnight. The fluorescence signal was detected with ENVISION (Perkinelmer) instrument (excitation wavelength: 320 nm, emission wavelength: 665 nm and 615 nm). The inhibition rate in each well was calculated by the fluorescence intensity value in each well:ER (Emission Ratio)=(Fluorescence intensity at 665 nm/Fluorescence intensity at 615 nm); inhibition rate=(ER of positive−ER of assay compound)/(ER of positive−ER of negative)×100%. IC50 values of compounds were calculated by standard software for parameter fitting (GraphPad Prism 6.0).

The mark [4] stands for this setting: MV4-11 cells, 120 hours, CellTiter-Glo.
The mark [5] stands for this setting: TOV21G cells, 120 hours, CellTiter-Glo.

Read-outs that look alike come from different tables or passages of the source.

Sequence of ATR kinase (Q13535 whole entry): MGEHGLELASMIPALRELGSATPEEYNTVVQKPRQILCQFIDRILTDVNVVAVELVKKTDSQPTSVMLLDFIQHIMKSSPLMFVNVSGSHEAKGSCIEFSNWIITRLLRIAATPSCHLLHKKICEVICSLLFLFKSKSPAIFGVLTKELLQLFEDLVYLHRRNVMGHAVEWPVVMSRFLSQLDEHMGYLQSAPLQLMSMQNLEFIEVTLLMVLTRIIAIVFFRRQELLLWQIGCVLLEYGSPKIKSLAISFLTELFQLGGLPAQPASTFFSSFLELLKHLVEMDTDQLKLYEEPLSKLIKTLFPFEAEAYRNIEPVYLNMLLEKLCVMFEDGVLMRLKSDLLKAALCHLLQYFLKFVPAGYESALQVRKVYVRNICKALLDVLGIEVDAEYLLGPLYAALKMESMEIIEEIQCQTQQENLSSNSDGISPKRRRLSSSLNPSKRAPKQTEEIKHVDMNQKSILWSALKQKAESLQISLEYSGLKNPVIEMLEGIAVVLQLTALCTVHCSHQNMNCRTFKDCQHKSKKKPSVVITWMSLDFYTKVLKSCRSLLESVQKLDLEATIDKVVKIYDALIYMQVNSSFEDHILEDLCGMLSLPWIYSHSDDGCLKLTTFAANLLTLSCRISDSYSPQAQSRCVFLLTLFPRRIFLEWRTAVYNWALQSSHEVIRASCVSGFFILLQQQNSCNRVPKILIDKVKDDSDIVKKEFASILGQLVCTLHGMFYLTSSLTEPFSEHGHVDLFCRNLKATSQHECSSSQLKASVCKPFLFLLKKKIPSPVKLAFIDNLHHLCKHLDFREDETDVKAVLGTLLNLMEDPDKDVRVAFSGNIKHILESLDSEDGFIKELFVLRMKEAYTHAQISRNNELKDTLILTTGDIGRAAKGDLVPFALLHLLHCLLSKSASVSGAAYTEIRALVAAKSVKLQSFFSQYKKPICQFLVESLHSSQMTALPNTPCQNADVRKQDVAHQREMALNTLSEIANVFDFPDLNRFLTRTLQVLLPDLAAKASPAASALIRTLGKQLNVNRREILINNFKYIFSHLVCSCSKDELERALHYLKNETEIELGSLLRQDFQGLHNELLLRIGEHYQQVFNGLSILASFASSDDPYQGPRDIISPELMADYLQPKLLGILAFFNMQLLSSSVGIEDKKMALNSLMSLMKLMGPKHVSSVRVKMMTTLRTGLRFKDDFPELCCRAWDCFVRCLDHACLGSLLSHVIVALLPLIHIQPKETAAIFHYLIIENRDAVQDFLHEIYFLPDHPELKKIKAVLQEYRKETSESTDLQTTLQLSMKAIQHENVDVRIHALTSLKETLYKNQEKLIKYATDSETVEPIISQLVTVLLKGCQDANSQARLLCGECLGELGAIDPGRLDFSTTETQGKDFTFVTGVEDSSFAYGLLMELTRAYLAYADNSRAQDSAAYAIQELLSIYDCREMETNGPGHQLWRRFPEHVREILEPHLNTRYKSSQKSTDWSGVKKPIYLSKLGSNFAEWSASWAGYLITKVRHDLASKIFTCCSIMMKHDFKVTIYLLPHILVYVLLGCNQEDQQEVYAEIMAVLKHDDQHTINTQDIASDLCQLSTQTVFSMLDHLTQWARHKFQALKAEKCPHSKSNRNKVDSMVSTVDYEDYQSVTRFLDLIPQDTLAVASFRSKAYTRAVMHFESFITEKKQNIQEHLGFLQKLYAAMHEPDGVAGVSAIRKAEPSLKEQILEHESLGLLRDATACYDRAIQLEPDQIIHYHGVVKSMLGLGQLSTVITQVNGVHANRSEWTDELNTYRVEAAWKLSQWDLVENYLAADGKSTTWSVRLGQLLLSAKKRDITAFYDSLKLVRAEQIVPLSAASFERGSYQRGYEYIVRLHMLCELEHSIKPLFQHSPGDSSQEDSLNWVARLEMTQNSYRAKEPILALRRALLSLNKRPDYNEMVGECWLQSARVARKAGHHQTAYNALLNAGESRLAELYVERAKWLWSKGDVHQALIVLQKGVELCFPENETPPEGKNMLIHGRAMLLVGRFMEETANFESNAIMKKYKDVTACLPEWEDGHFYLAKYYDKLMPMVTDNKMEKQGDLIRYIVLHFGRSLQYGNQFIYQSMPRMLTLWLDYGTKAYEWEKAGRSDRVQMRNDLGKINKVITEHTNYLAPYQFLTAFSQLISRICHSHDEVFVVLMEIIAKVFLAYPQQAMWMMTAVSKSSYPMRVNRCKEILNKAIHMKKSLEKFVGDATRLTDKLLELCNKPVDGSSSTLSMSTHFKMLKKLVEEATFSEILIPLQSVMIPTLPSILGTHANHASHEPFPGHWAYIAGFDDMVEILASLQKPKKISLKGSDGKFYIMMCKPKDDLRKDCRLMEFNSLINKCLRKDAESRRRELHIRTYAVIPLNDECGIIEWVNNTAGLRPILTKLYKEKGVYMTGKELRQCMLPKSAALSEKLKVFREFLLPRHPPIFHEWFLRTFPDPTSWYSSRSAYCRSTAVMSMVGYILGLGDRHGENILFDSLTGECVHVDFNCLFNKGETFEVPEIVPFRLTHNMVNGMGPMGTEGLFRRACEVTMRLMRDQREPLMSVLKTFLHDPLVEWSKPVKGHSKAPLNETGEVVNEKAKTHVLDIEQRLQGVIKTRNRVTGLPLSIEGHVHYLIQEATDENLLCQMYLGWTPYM
Sequence of ATR kinase (Q8WXE1 whole entry partner): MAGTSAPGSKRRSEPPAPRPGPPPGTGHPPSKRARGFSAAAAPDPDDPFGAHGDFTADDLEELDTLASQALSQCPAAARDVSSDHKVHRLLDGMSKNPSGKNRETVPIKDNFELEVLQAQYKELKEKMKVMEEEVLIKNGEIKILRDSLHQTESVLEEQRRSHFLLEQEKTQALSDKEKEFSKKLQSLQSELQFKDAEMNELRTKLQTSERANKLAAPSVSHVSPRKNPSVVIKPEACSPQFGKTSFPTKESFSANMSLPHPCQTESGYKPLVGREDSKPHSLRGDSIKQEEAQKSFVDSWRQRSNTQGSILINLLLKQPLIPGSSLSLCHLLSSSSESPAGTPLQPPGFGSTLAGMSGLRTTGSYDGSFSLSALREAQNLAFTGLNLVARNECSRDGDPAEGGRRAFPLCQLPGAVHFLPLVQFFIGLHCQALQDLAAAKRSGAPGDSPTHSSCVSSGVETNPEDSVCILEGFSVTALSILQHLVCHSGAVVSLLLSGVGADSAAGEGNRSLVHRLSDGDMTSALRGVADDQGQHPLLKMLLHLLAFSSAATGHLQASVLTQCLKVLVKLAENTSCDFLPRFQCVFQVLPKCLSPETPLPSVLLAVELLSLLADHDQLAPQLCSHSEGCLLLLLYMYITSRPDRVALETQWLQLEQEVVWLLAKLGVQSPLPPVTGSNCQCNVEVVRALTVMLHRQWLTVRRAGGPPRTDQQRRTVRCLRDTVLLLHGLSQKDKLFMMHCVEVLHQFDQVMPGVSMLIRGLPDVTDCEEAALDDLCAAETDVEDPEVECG

For the compound `Cc1nn(-c2cncc(C(F)F)c2)c(C)c1-c1cc(N2CCOC[C@H]2C)nc(-c2ccnc3[nH]ccc23)n1` [Compound A21], the IC50 in assay [1] (setting [4]) is 0.332 µM; in assay [2] (setting [5]), 0.537 µM; in assay [3], 6 nM.

On to `Cc1nn(-c2cncc(O)c2)c(C)c1-c1cc(N2CCOC[C@H]2C)nc(-c2cccc3[nH]ccc23)n1` [Compound A23], for which the IC50 was found to be 0.175 µM in assay [1] (setting [4]), 0.24 µM in assay [2] (setting [5]) and 3 nM in assay [3].

As to `Cc1nn(-c2cncc(C(N)=O)c2)c(C)c1-c1cc(N2CCOC[C@H]2C)nc(-c2cccc3[nH]ccc23)n1` [Compound A24], the IC50 in assay [1] (setting [4]) turned out to be 0.18 µM; in assay [2] (setting [5]), 0.22 µM; in assay [3], 1 nM.

Take `Cc1nn(-c2cnccn2)c(C)c1-c1cc(N2CCOC[C@H]2C)nc(-c2cc(F)cc3[nH]ccc23)n1` [Compound A25]: the IC50 was 0.46 µM in assay [1] (setting [4]), 0.53 µM in assay [2] (setting [5]) and 7 nM in assay [3].

As for `CNc1nc2ccccc2n1-c1nc(-c2c(C)nn(-c3ccc(C#N)nc3)c2C)cc(N2CCOC[C@H]2C)n1` [Compound B2], the values for the IC50 in assay [1] (setting [4]), in assay [2] (setting [5]) and in assay [3] were 0.133 µM, 0.278 µM and 22 nM, respectively.

For `CNc1nc2ccccc2n1-c1nc(-c2c(C)nn(-c3cncc(Cl)c3)c2C)cc(N2CCOC[C@H]2C)n1` [Compound B3], the IC50 in assay [1] (setting [4]) turned out to be 0.303 µM; in assay [2] (setting [5]), 0.411 µM; in assay [3], 49 nM.

Consider `CNc1nc2ccccc2n1-c1nc(-c2c(C)nn(-c3cncc(C#N)c3)c2C)cc(N2CCOC[C@H]2C)n1` [Compound B4], for which the IC50 came to 0.25 µM in assay [1] (setting [4]), 0.306 µM in assay [2] (setting [5]) and 17 nM in assay [3].

As for `CNc1nc2ccccc2n1-c1nc(-c2c(C)nn(-c3cnc(N)c(F)c3)c2C)cc(N2CCOC[C@H]2C)n1` [Compound B5], the IC50 in assay [1] (setting [4]) was 0.208 µM; in assay [2] (setting [5]) it was 0.383 µM; in assay [3], 16 nM.

For `CNc1nc2ccccc2n1-c1nc(-c2c(C)nn(-c3cccnc3)c2C)cc(N2CCOC[C@H]2C)n1` [Compound B6], the IC50 in assay [1] (setting [4]) is 0.439 µM; in assay [2] (setting [5]), 0.483 µM; in assay [3], 13 nM.

`CNc1nc2ccccc2n1-c1nc(-c2c(C)nn(-c3ccc(OC)nc3)c2C)cc(N2CCOC[C@H]2C)n1` [Compound B7]: the results for the IC50 in assay [1] (setting [4]), in assay [2] (setting [5]) and in assay [3] were 0.549 µM, 0.544 µM and 62 nM, respectively.

As to `CC#Cc1cncc(-n2nc(C)c(-c3cc(N4CCOC[C@H]4C)nc(-n4c(NC)nc5ccccc54)n3)c2C)c1` [Compound B8], the IC50 in assay [1] (setting [4]) was 0.519 µM; in assay [2] (setting [5]), 0.212 µM; in assay [3] it was 69 nM.

Regarding `CNc1nc2ccccc2n1-c1nc(-c2c(C)nn(-c3ccc(=O)[nH]c3)c2C)cc(N2CCOC[C@H]2C)n1` [Compound B9], the IC50 in assay [1] (setting [4]) was found to be 0.157 µM; in assay [2] (setting [5]) it was 0.226 µM; in assay [3], 3 nM.

For `CNc1nc2ccccc2n1-c1nc(-c2c(C)nn(-c3cncc(C(N)=O)c3)c2C)cc(N2CCOC[C@H]2C)n1` [Compound B10], the IC50 was 0.287 µM in assay [1] (setting [4]), 0.219 µM in assay [2] (setting [5]) and 5 nM in assay [3].

Regarding `Cc1nn(-c2cncc(F)c2)c(C)c1-c1cc(N2CCOC[C@H]2C)nc(-n2c(NCCO)nc3ccccc32)n1` [Compound B11], the IC50 in assay [1] (setting [4]) was found to be 0.24 µM; in assay [2] (setting [5]) it was 0.276 µM; in assay [3], 15 nM.

`Cc1nn(-c2cncc(F)c2)c(C)c1-c1cc(N2CCOC[C@H]2C)nc(-n2c(N)nc3ccccc32)n1` [Compound B12]: the IC50 in assay [1] (setting [4]) is 0.253 µM; in assay [2] (setting [5]), 0.257 µM; in assay [3], 3 nM.

As to `Cc1nn(-c2cncc(F)c2)c(C)c1-c1nc(-c2cccc3[nH]ccc23)nc(N2CCOC[C@H]2C)n1` [Compound C1], the IC50 is 0.903 µM in assay [1] (MV4-11, 120 h); 0.349 µM in assay [2] (TOV21G, 120 h); 18 nM in assay [3].

In the case of `Cc1nn(-c2cncc(F)c2)c(C)c1-c1cc(C23CCOCC2C3)nc(-c2cc(F)cc3[nH]ccc23)n1` (stereo not drawn) [Compound C2], the values for the IC50 in assay [1] (setting [4]), in assay [2] (setting [5]) and in assay [3] were 0.896 µM, 1.07 µM and 13 nM, respectively.
